Laboratory results reported in US20140193521A1, “Drug Delivery Systems and Method of Reducing Foal Infection by Treating Mares with Gallium Salts” (priority 2011, published 2014).

Tests used:
R equi = conditions: administered to the foal; cited from earlier work
[1] = administered to the foal; cited from earlier work
[2] = Safety / adverse effects of gallium nitrate in horses; type: in vivo
Protocol: (§1) For example, without limitations, two adult horses were given a single dose of gallium nitrate by nasogastric tube at a dose of 9.2 mg/kg at 1% gallium nitrate concentration. […] Based on tis work, two more horses were dosed with 9.2 mg/kg of daily for 6 days to determine steady state values. […] There were traces of gallium present in both the red blood cells (“RBC”) and smaller amounts in the serum prior to any medication administration. It appears to concentrate in the RBC and move into the serum. The significance of this is unknown.

virulent R. equi [3] = test: Virulent R. equi in feces of mares by real-time TaqMan PCR of vapA gene; type: in vivo, Rhodococcus equi
Protocol: As part of a non-limiting example of an embodiment of the invention, virulent R. equi in feces was measured in the feces using the following method. Two milliliters of PBS were added to 1 g of each fecal sample in a conical tube. Thereafter, each sample was vortexed for 10 seconds and centrifuged at 13,000× g for 1 minute. In order to minimize contamination, all pipetting steps were performed in a laminar flow cabinet. Nucleic acid purification from 180 μl of supernatant fluid was performed using an automated nucleic acid extraction system (CAS-1820 X-tractor Gene, Corbett Life Science, Sydney, Australia) according to the manufacturer's recommendations. A real-time TaqMan PCR assay for R. equi has been established and validated. The assay is based on the detection of a specific 75 base-pair long product of the vapA gene of R. equi (GenBank accession number AF116907; oligonucleotides: forward primer […], reverse primer […], probe […]). Each PCR reaction contained 400 nM of each primer, 80 nM of the TaqMan probe and mastermix (TaqMan Universal PCR Mastermix, Applied Biosystems, Foster City, Calif.) and 1 μL of the gDNA sample in a final volume of 12 μL. […] DNA extraction and amplification efficiency were verified by quantitating the universal bacterial 16S rRNA gene. Absolute quantitation of R. equi target molecules was performed using a standard curve and expressed as R. equi vapA target genes per 1 g of feces. […]
The number of CFU/g of either virulent R. equi in feces was estimated using real-time PCR. Because these samples were collected serially from individual mares, these longitudinal data were analyzed using mixed-effects modeling, with time (number of days since last known breeding date) and treatment group modeled as fixed effects, and individual mare modeled as a random effect. […] The count of positive samples were determined for each mare, and Poisson regression analysis was used to examine the effects of treatment. […]

R. equi [4] = conditions: reported; cited from earlier work
virulent R. equi [5] = test: Fecal concentration of virulent R. equi in peripartum mares (culture, colony immunoblot); type: in vivo, Rhodococcus equi
Protocol: (§2) As part of a non-limiting example of an embodiment of the invention, the effect of oral GaN on the concentrations of virulent R. equi in the feces of the mares was determined. Twenty-one horses were randomly assigned in a paired block design to ensure that 10 mares were part of the treated group and 11 mares were part of the control group. These twenty-one Arabian mares were treated daily with either oral gallium nitrate or placebo. Fecal samples were collected at day 320 of gestation (time 1), the week before foaling (time 2), and the week after foaling (time 3). Airborne concentration of R. equi were measured in the stall within 6 hours post foaling using a microbial air sampling system into which standard (100-mm) culture plates with a media selective for R. equi have been loaded. This sample size of mares was selected on the basis of power calculations using the following assumptions: (a) significance level of P=0.05; (b) statistical power of 90%; (c) a mean of 1×10^4 colony forming units (cfu) per gram of feces among control mares; (d) a mean of 1×10^3 cfu per gram of feces among principal mares; and (e) standard deviations of 1×10^4 and 1×10^3 for the control and principal groups, respectively. The values for fecal concentrations were made on the basis of prior experiences of a collaborator. The total number of R. equi colonies on a plate was determined by morphologic identification; additionally, 10 colonies identified as R. equi each month were tested by PCR to confirm that the isolates are R. equi.
(§3) To determine the number of virulent colonies on each plate, a modified colony immunoblot method was used, as previously described (E.g., Grimm M B, Cohen N D, Slovis N M, et al. Evaluation of mares from a Thoroughbred breeding farm as a source of Rhodococcus equi for their foals using quantitative culture and a colony immunoblot assay. Am J Vet Res 2007; 68:63-71). […]
Concentrations of total R. equi were determined by morphological characteristics. The concentration of virulent R. equi was determined using a modified colony immunoblot method. […]

R. equi [6] = test: Airborne concentration of R. equi in foaling stalls shortly after foaling; type: in vivo, Rhodococcus equi; conditions: stall air after foaling
Protocol: as §2, with “This sample size of mares was selected on the basis of power calculations using the following assumptions: (a) significance level of P=0.05; (b) statistical power of 90%; (c) a mean of 1×10^4 colony forming units (cfu) per gram of feces among control mares; (d) a mean of 1×10^3 cfu per gram of feces among principal mares; and (e) standard deviations of 1×10^4 and 1×10^3 for the control and principal groups, respectively. The values for fecal concentrations were made on the basis of prior experiences of a collaborator.” left out
As part of a non-limiting example of an embodiment of the invention, the following method was employed to determine the effect of oral GAN on the airborne concentration of virulent R. equi in foaling stalls shortly after birth. […] The number of total and virulent R. equi counted on each plate represented the airborne concentrations (cfu/1,000 liters of air). […]

R. equi [7] = conditions: cited from earlier work
[8] = Whole blood and serum gallium in horses after gallium nitrate by nasogastric tube / oral dosing; type: in vivo
Protocol: FIG. 1 is a graph showing whole blood concentrations (micromoles/g) of horses in which gallium nitrate was administered daily after pulling blood for two days pre-administration. The horses were treated for five days.
(§4) For example, without limitation, in horses fed the same amount, the blood concentration increased from 0.0000231 micromoles/g to 0.0009004 micromoles/g well below what is needed to kill R. equi in the blood, but is a […] increase in blood concentration over time. Previous in vitro data found anything over 0.050 micromoles/ml killed R. equi in culture, and higher concentrations worked better. Administering oral gallium nitrate to mares daily achieved about 1.5 to 7.1 micromoles of gallium per gram of dry feces. This also led to a reduction in the concentration of R. equi in the feces of the mares.
as §1

[9] = Fecal concentration of gallium in mares given oral gallium nitrate daily; type: in vivo; conditions: 9.2 mg/kg of 1% GaN daily from day 320
Source text: FIG. 3 is a graph showing fecal concentration of gallium in ppm of gram of feces in control mares versus treated.
as §4
as §3, with “68:63-71). Briefly, this procedure entails applying nitrocellulose membranes to culture plates to transfer bacterial surface proteins, blotting the membranes using a murine monoclonal antibody against the vapA protein, and then using a labeled secondary antibody to detect the presence of vapA-positive (i.e. virulent) colonies.” for “68:63-71).”

[10] = pregnant mice, cited from earlier work
[11] = 300 to 1500 mg/kg intraperitoneally; cited from earlier work

Cc1occc(=O)c1[O-].Cc1occc(=O)c1[O-].Cc1occc(=O)c1[O-].[Ga+3] [Gallium maltolate]
cumulative incidence of R equi pneumonia, control versus treated groups (R equi): no significant differences
gallium serum concentration [1]: increased

O=[N+]([O-])[O-].O=[N+]([O-])[O-].O=[N+]([O-])[O-].[Ga+3] [gallium nitrate]
adverse effects in dosed horses ([2]; 9.2 mg/kg single dose or daily for 6 days): None of the horses showed any adverse effects
adverse effects in pregnant mares ([2]; from conception through foaling): no demonstrable adverse effects
adverse event claims in field use ([2]; used in over 10,000 horses): not been a single claim of any adverse event
highest level of virulent R. equi in feces in any treated mare (virulent R. equi [3]): 17,500 CFU/g
level of virulent R. equi in feces in most treated mares (virulent R. equi [3]): ≤ 1,600 CFU/g
level of virulent R. equi in feces in several treated mares (virulent R. equi [3]): almost undetectable levels
R. equi growth in experimentally infected mice (R. equi [4]): decrease R. equi growth
concentration of R. equi in the feces of the mares (virulent R. equi [5]; oral gallium nitrate daily): reduction
concentrations of virulent R. equi in feces, treatment group compared to control (virulent R. equi [5]; time 3, week after foaling, P<0.05): significantly lower
concentrations of virulent R. equi in feces, time 3 versus time 1 in treatment group (virulent R. equi [5]; week after foaling versus day 320 of gestation, P<0.05): significantly (P<0.05) lower
treated mares with positive airborne samples (R. equi [6]): 2 of 10
concentration that killed R. equi in culture (R. equi [7]; previous in vitro data): over 0.050 micromoles/ml
effect on growth of R. equi grown in media (R. equi [7]; reported): significant inhibition in growth and to even kill R. equi
whole blood concentrations following gallium nitrate administration (FIG. 1) ([8]; 9.2 mg/kg daily for 6 days, two horses): increased
increase in blood concentration over time ([8]; horses): 250%
blood concentration of gallium, starting value ([8]; horses, value the concentration increased from): 0.0000231 µmol/g
blood concentration of gallium, after feeding ([8]; horses, value the concentration increased to): 0.0009004 µmol/g
time of peak gallium in whole blood and serum ([8]; single dose 9.2 mg/kg, 1% gallium nitrate, nasogastric tube): around 24 hours
time by which absorption of gallium was demonstrated ([8]; single dose 9.2 mg/kg, 1% gallium nitrate, nasogastric tube, whole blood and serum): ≤ 6 h
fecal concentration of gallium, treated versus control mares (FIG. 3) [9]: significant increase
adverse effects in the fetus ([10]; 50 mg/kg and below): no adverse effects
fetal malformations ([10]; 100 mg/kg): cleft palate and renal hypoplasia were increased
effect on regeneration of bone and cartilage [11]: dose dependent effect
